Results published in publication PMC12062775, “Shifting the substrate scope of dimeric pyranose oxidase from monosaccharide to glycoside preference through oligomeric state modification” (The Febs Journal, 2025).

Columns and labels:
[1] = system: T1, KaPOx_xal; test: Amplex Red / horseradish peroxidase coupled oxidase assay, steady state; format: biochemical, Kitasatospora aureofaciens; settings: air O2 ~250 μM, 50 mM Tris/HCl pH 7.5, 30 °C; read-out: [drawing 2] Phlorizin / K m/mM
T1 construct: gene KaPOx; KaPOx with arm domain and oligomerization loop replaced by ScPOx insertion-1 domain and flexible loop; C-terminal His6; pET-21a(+), E. coli T7 Express
Excerpt: Amplex Red / horseradish peroxidase coupled oxidase assay, steady state on KaPOx_xal

[2] = system: T2, KaPOx_xalh; test: as above; format: biochemical, Kitasatospora aureofaciens; settings: air O2 ~250 μM, 50 mM Tris/HCl pH 7.5, 30 °C; read-out: [drawing 2] Phlorizin / K m/mM
T2 construct: gene KaPOx; C-terminal His6; pET-21a(+), E. coli T7 Express
Excerpt: Amplex Red / horseradish peroxidase coupled oxidase assay, steady state on KaPOx_xalh

Molecule `O=C(CCc1ccc(O)cc1)c1c(O)cc(O)cc1O[C@@H]1O[C@H](CO)[C@@H](O)[C@H](O)[C@H]1O` [Phlorizin] has a Km [1] of 0.015 ± 0.002 mM and a Km [2] of 0.019 ± 0.003 mM.
